Data reported in PMC3723632, “A Multi-targeted Drug Candidate with Dual Anti-HIV and Anti-HSV Activity” (PLoS Pathogens, 2013).
Values after ≈ are worked out from the molar mass of the structure shown.

How the values were obtained:
HSV-2 (G) [1] = experiment: HSV-2 replication in human ex vivo tonsillar (lymphoid) tissue, viral DNA; type: cell-based; conditions: for HSV-2 DNA copies: human lymphoid tissue ex vivo; for EC99 (viral load reduced by 2 orders of magnitude): tonsilar tissue, RT-PCR assay
Description: Figure 5 Suppression of HSV-2 in infected human ex vivo tonsillar tissue by adefovir and PMEO-DAPym. Blocks of human tonsillar tissue were inoculated ex vivo with HSV-2 (G) and treated or not with adefovir or PMEO-DAPym. We monitored HSV-2 (G) replication by measuring viral DNA in culture media at different times throughout the culture period. Presented are means ± SEM of cumulative HSV-2 (G) replication in tissues from two to six donors. For each donor, data represent pooled viral release from 27 tissue blocks.
Figure 7 Suppression of HSV-2 in single-infected and HIV-1 co-infected human ex vivo tonsillar tissue by adefovir and PMEO-DAPym. Panels A and B: Blocks of human tonsillar tissue from five different donors were co-inoculated ex vivo with HSV-2 (G) and HIV-1 (LAI) and treated or not with adefovir or PMEO-DAPym (1 µg/ml). For tissue from each donor, we monitored replication of both viruses by evaluating their accumulation in the culture media bathing 27 tissue blocks at different times throughout the culture. We evaluated HIV-1 replication by measuring p24gag and HSV-2 (G) replication by measuring HSV-2 viral DNA. Panel A: Presented are kinetics of HSV-2 (G) and HIV-1 (LAI) replication (insert). Each point represents the mean ± SEM of viral replication in tissues from five donors. Panel B: Presented are means ± SEM of cumulative HSV-2 (G) and HIV-1 (LAI) replication (insert).
Human tonsillar tissues were obtained from patients undergoing routine tonsillectomy at the Children's National Medical Center (Washington, DC) under IRB-approved protocol. Cervical tissues were obtained through the National Disease Research Interchange (NDRI, Philadelphia, PA). Tissues were dissected into blocks of about 2×2×2 mm and placed onto collagen sponge gels in culture medium at the air-liquid interface as described earlier. For tonsillar tissue for each experimental condition, 27 tissue blocks (9 blocks/well filled with 3 ml of medium) were inoculated with HSV-1 (strain F) or HSV-2 (strains G and MS). In coinfection experiments, tissue blocks were sequentially infected with HSV-2 (G) and HIV-1 (IIIB) (obtained from the Rush University Virology Quality Assurance Laboratory, Chicago, IL). Drugs (adefovir and PMEO-DAPym) were added to the culture medium 12 h prior to viral infection and replenished at each culture medium change.
(§1) For cervico-vaginal tissue, 16 blocks were infected by immersion in HSV-2G-containing medium and maintained on the gelfoam rafts. Adefovir was added at the time of infection and replenished at each culture medium change. HSV replication was evaluated from the release of viral DNA into the culture medium as measured with quantitative real-time PCR [18]. We evaluated HIV-1 replication from the release of p24 capsid antigen using a bead-based assay.

HIV-1 (LAI) = experiment: HIV-1 replication (p24) in coinfected human ex vivo lymphoid tissue; type: cell-based; conditions: lymphoid tissue coinfected with HIV-1 and HSV-2, 1 µg/ml
Method: Figure 7 Suppression of HSV-2 in single-infected and HIV-1 co-infected human ex vivo tonsillar tissue by adefovir and PMEO-DAPym. Panels A and B: Blocks of human tonsillar tissue from five different donors were co-inoculated ex vivo with HSV-2 (G) and HIV-1 (LAI) and treated or not with adefovir or PMEO-DAPym (1 µg/ml). For tissue from each donor, we monitored replication of both viruses by evaluating their accumulation in the culture media bathing 27 tissue blocks at different times throughout the culture. We evaluated HIV-1 replication by measuring p24gag and HSV-2 (G) replication by measuring HSV-2 viral DNA. Panel A: Presented are kinetics of HSV-2 (G) and HIV-1 (LAI) replication (insert). Each point represents the mean ± SEM of viral replication in tissues from five donors. Panel B: Presented are means ± SEM of cumulative HSV-2 (G) and HIV-1 (LAI) replication (insert). […]
as §1, with “Adefovir was added at the time of infection and replenished at each culture medium change.” left out

HSV-2 (NS and RV-194) = experiment: Virus yield reduction assay in HEL cells, HSV-2 clinical isolates; conditions: for EC90: Human alphaherpesvirus 2, HEL
Method: These assays were carried out in HEL cell monolayers at different times post infection. […] After 2 h at 37°C, the cells were washed and medium containing different concentrations of PMEO-DAPym (in duplicate) was added. Following 24, 48, and 72 h of incubation, we released the viruses by freeze-thawing and then titrated them using a plaque assay in HEL cells.

HSV-1 or HSV-2 = experiment: Topical treatment of athymic nude mice inoculated with HSV-1 or HSV-2; type: in vivo; conditions: topical gel twice daily for 5 days, p<0.05
Method: Figure 8 Effects of adefovir and PMEO-DAPym on mortality in mice inoculated with HSV-1 or HSV-2. Groups of five nu/nu mice were inoculated with HSV-1 (panel A) or HSV-2 (panel B) on the lumbosacral area. Each cohort was then subjected to topical treatment twice daily for 5 consecutive days, starting on the day of viral infection. The placebo groups received a similar treatment with the test formulation without drug. Mortality was recorded over a period of 30 days. Animals were euthanized when more than 30% loss in body weight or development of paralysis occurred. We estimated survival rates according to the Kaplan-Meier method and compared them using the log-rank test (Mantel-Cox using GraphPad Prism).
Female adult NMRI athymic nude mice or hairless mice (weighing ∼20 g and approximately 4 weeks old) were scarified on the lumbosacral area over a surface of about 1 cm^2 with 5×10^3 PFU of HSV-1 (KOS) or 5×10^2 PFU of HSV-2 (G).
Formulations of adefovir and PMEO-DAPym (0.3% and 1%) in a gel (identical to that used in the CAPRISA 004 trial) were applied topically twice a day for a period of 5 days starting 1–2 h post infection. In each experiment, a group of animals was treated with a placebo formulation that contained exactly the same vehicle but without drug. […] Development of lesions and mortality were recorded over a 1-month period. […]

HSV-2 (G) [2] = experiment: HSV-2 replication in human cervico-vaginal explants; type: cell-based; conditions: 1 µg/ml
Method: Figure 6 Suppression of HSV-2 in human cervico-vaginal tissues by adefovir and PMEO-DAPym. Blocks of human cervico-vaginal tissues were inoculated ex vivo with HSV-2 (G) or co-infected with HIV-1 and HSV-2 and treated or not with adefovir (1 µg/ml) or PMEO-DAPym (1 µg/ml). We monitored HSV-2 (G) replication by measuring viral DNA accumulated in culture media at different times throughout the culture period. Presented is cumulative HSV-2 (G) replication, with data representing pooled viral release from 16 tissue blocks.
as §1

Nc1cc(OCCOCP(=O)(O)O)nc(N)n1 [PMEO-DAPym, 6-phosphonylmethoxyethoxy-2,4-diaminopyrimidine]
inhibition at 0.3 µg/mL (HSV-2 (G) [1]; Human alphaherpesvirus 2, human lymphoid tissue ex vivo, 0.3 µg/mL, read-out: Inhibition of viral replication (% to control)): 52.8% | inhibition at 3 µg/mL (HSV-2 (G) [1]; Human alphaherpesvirus 2, human lymphoid tissue ex vivo, 3 µg/mL, read-out: Inhibition of viral replication (% to control)): > 99% | HSV-2 DNA copies (HSV-2 (G) [1]; 0.3 µg/mL): 5.76 e+7 copies | HSV-2 DNA copies (HSV-2 (G) [1]; 3 µg/mL): 8.08 e+5 copies | EC99 (viral load reduced by 2 orders of magnitude) (HSV-2 (G) [1]): 2 µg/mL | HIV-1 inhibition (HIV-1 (LAI)): 2 orders of magnitude | EC90 (HSV-2 (NS and RV-194); 24 h, Strain NS, moi = 1x10^-3, 24 hours): < 1 µg/mL | EC90 (HSV-2 (NS and RV-194); 24 h, Strain NS, moi = 1x10^-4, 24 hours): < 1 µg/mL | EC90 (HSV-2 (NS and RV-194); 24 h, Strain RV-194, moi = 1x10^-3, 24 hours): 2.08 µg/mL (≈ 7.87 µM) | EC90 (HSV-2 (NS and RV-194); 24 h, Strain RV-194, moi = 1x10^-4, 24 hours): < 1 µg/mL | EC90 (HSV-2 (NS and RV-194); 48 h, Strain NS, moi = 1x10^-3, 48 hours): < 1 µg/mL | EC90 (HSV-2 (NS and RV-194); 48 h, Strain NS, moi = 1x10^-4, 48 hours): < 1 µg/mL | EC90 (HSV-2 (NS and RV-194); 48 h, Strain RV-194, moi = 1x10^-3, 48 hours): < 1 µg/mL | EC90 (HSV-2 (NS and RV-194); 48 h, Strain RV-194, moi = 1x10^-4, 48 hours): < 1 µg/mL | EC90 (HSV-2 (NS and RV-194); 72 h, Strain NS, moi = 1x10^-3, 72 hours): 1.34 µg/mL (≈ 5.07 µM) | EC90 (HSV-2 (NS and RV-194); 72 h, Strain NS, moi = 1x10^-4, 72 hours): < 1 µg/mL | EC90 (HSV-2 (NS and RV-194); 72 h, Strain RV-194, moi = 1x10^-3, 72 hours): 1 µg/mL (≈ 3.79 µM) | EC90 (HSV-2 (NS and RV-194); 72 h, Strain RV-194, moi = 1x10^-4, 72 hours): < 1 µg/mL | EC99 (HSV-2 (NS and RV-194); Strain NS, moi = 1x10^-3, 24 hours): 3.0 µg/mL | EC99 (HSV-2 (NS and RV-194); Strain NS, moi = 1x10^-3, 48 hours): 3.28 µg/mL | EC99 (HSV-2 (NS and RV-194); Strain NS, moi = 1x10^-3, 72 hours): 3.63 µg/mL | EC99 (HSV-2 (NS and RV-194); Strain NS, moi = 1x10^-4, 24 hours): 3.6 µg/mL | EC99 (HSV-2 (NS and RV-194); Strain NS, moi = 1x10^-4, 48 hours): 1.0 µg/mL | EC99 (HSV-2 (NS and RV-194); Strain NS, moi = 1x10^-4, 72 hours): 2.3 µg/mL | EC99 (HSV-2 (NS and RV-194); Strain RV-194, moi = 1x10^-3, 24 hours): 7.15 µg/mL | EC99 (HSV-2 (NS and RV-194); Strain RV-194, moi = 1x10^-3, 48 hours): 1.0 µg/mL | EC99 (HSV-2 (NS and RV-194); Strain RV-194, moi = 1x10^-3, 72 hours): 3.58 µg/mL | EC99 (HSV-2 (NS and RV-194); Strain RV-194, moi = 1x10^-4, 24 hours): < 1 µg/mL | EC99 (HSV-2 (NS and RV-194); Strain RV-194, moi = 1x10^-4, 48 hours): 1.58 µg/mL | EC99 (HSV-2 (NS and RV-194); Strain RV-194, moi = 1x10^-4, 72 hours): 2.62 µg/mL | virus-related morbidity and survival (HSV-1 or HSV-2): significantly delayed virus-related morbidity and prolonged the survival of the mice | inhibition of HSV-2 infection (HSV-2 (G) [2]): markedly inhibited

Nc1ncnc2c1ncn2CCOCP(=O)(O)O [Adefovir, 9-(2-phosphonylmethoxyethyl)adenine]
EC99 (viral load reduced by 2 orders of magnitude) (HSV-2 (G) [1]): 5 µg/mL | HIV-1 inhibition (HIV-1 (LAI)): 2 orders of magnitude | virus-related morbidity and survival (HSV-1 or HSV-2): significantly delayed virus-related morbidity and prolonged the survival of the mice | inhibition of HSV-2 infection (HSV-2 (G) [2]): markedly inhibited
